The test concerns L1210 leukemia ip in BDF1 mice, survival T/C. The experiment in a line: NCI In Vivo Anticancer Drug Screen. Data for tumor model L1210 Leukemia (intraperitoneal) in B6D2F1 (BDF1) mice. The note with it: endpoint: mean survival time, higher = longer survival. Put shortly:
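Each compound was tested against a transplantable tumor grown in mice. The endpoint was survival, with treated animals benchmarked against vehicle controls as a simple ratio.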

Where [1] appears, read: dose: 100.0 mg/kg/injection, schedule: Q04DX003 (ip), vehicle: saline with Tween-80.
[2] abbreviates: dose: 200.0 mg/kg/injection, schedule: Q04DX003 (ip), vehicle: saline with Tween-80.
[3] abbreviates: dose: 400.0 mg/kg/injection, schedule: Q04DX003 (ip), vehicle: saline with Tween-80.
Where [4] appears, read: dose: 50.0 mg/kg/injection, schedule: Q01DX001 (ip), vehicle: carboxymethylcellulose (CMC).
Setting [5] is: dose: 100.0 mg/kg/injection, schedule: Q01DX001 (ip), vehicle: carboxymethylcellulose (CMC).
Where [6] appears, read: dose: 200.0 mg/kg/injection, schedule: Q01DX001 (ip), vehicle: carboxymethylcellulose (CMC).
[7] abbreviates: dose: 400.0 mg/kg/injection, schedule: Q01DX001 (ip), vehicle: carboxymethylcellulose (CMC).
Setting [8] is: dose: 100.0 mg/kg/injection, schedule: Q04DX002 (ip), vehicle: Klucel (hydroxypropylcellulose) (HPC).
[9] abbreviates: dose: 200.0 mg/kg/injection, schedule: Q04DX002 (ip), vehicle: Klucel (hydroxypropylcellulose) (HPC).
The mark [10] stands for this setting: dose: 100.0 mg/kg/injection, schedule: Q01DX009 (ip), vehicle: saline with Tween-80.
Setting [11] is: dose: 200.0 mg/kg/injection, schedule: Q01DX009 (ip), vehicle: saline with Tween-80.
Setting [12] is: dose: 100.0 mg/kg/injection, schedule: Q01DX001 (ip), vehicle: saline.
Where [13] appears, read: dose: 100.0 mg/kg/injection, schedule: Q04DX003 (ip), vehicle: saline.
Where [14] appears, read: dose: 200.0 mg/kg/injection, schedule: Q01DX001 (ip), vehicle: saline.
[15] abbreviates: dose: 200.0 mg/kg/injection, schedule: Q01DX009 (ip), vehicle: saline.
Where [16] appears, read: dose: 200.0 mg/kg/injection, schedule: Q04DX003 (ip), vehicle: saline.
Setting [17] is: dose: 400.0 mg/kg/injection, schedule: Q01DX001 (ip), vehicle: saline.
[18] abbreviates: dose: 400.0 mg/kg/injection, schedule: Q04DX003 (ip), vehicle: saline.
Setting [19] is: dose: 100.0 mg/kg/injection, schedule: Q01DX009 (ip), vehicle: saline.
The mark [20] stands for this setting: dose: 400.0 mg/kg/injection, schedule: Q01DX009 (ip), vehicle: saline.

Toxic doses and inconclusive results are not listed.

In the case of `CCOP(=O)(NCCCOC)OCC`, the T/C runs as follows: (dose: 0.78 mg/kg/injection, schedule: Q01DX009 (ip), vehicle: acetone) 96 % of control; (dose: 1.56 mg/kg/injection, schedule: Q01DX009 (ip), vehicle: acetone) 100 % of control; (dose: 3.12 mg/kg/injection, schedule: Q01DX009 (ip), vehicle: acetone) 91 % of control; (dose: 3.12 mg/kg/injection, schedule: Q04DX003 (ip), vehicle: saline) 93 % of control; (dose: 4.6 mg/kg/injection, schedule: Q01DX009 (ip), vehicle: saline) 95 % of control; (dose: 7.0 mg/kg/injection, schedule: Q01DX009 (ip), vehicle: saline) 98 % of control. Also, the T/C by setting is: (dose: 10.5 mg/kg/injection, schedule: Q01DX009 (ip), vehicle: saline) 95 % of control; (dose: 12.5 mg/kg/injection, schedule: Q01DX001 (ip), vehicle: acetone) 94 % of control; (dose: 15.0 mg/kg/injection, schedule: Q01DX009 (ip), vehicle: acetone) 94 % of control; (dose: 23.0 mg/kg/injection, schedule: Q01DX009 (ip), vehicle: acetone) 94 % of control.

Turning to `O=C(c1cccc2ccccc12)N(c1ccccc1)c1ccccc1`, the T/C (dose: 100.0 mg/kg/injection, schedule: Q04DX003 (ip), vehicle: Klucel (hydroxypropylcellulose) (HPC)) was 103 % of control.

Regarding `COc1ccc(C(C)c2ccccc2)cc1` (stereo not drawn), the T/C reads like this: under setting [1], 98 % of control; under setting [2], 95 % of control; under setting [3], 93 % of control.

For the compound `O=NN(CCCN(N=O)C(=O)Nc1c[nH]c(=O)[nH]c1=O)C(=O)Nc1c[nH]c(=O)[nH]c1=O`, the T/C is, setting by setting: (dose: 50.0 mg/kg/injection, schedule: Q01DX Z (ip), vehicle: carboxymethylcellulose (CMC)) 110 % of control; (dose: 75.0 mg/kg/injection, schedule: Q01DX Z (ip), vehicle: carboxymethylcellulose (CMC)) 110 % of control; (dose: 100.0 mg/kg/injection, schedule: Q01DX Z (ip), vehicle: carboxymethylcellulose (CMC)) 115 % of control; (dose: 150.0 mg/kg/injection, schedule: Q01DX Z (ip), vehicle: carboxymethylcellulose (CMC)) 111 % of control; (dose: 200.0 mg/kg/injection, schedule: Q01DX Z (ip), vehicle: carboxymethylcellulose (CMC)) 119 % of control.

Turning to `Nc1nc2nc(-c3ccccc3)nc(N)c2nc1-c1ccc(N(CCCl)CCCl)cc1`, the T/C was 98 % of control under setting [4], 95 % of control under setting [5], 101 % of control under setting [6] and 98 % of control under setting [7].

With `Cc1cc(=O)[nH]c2c(C)cc(Cc3cc(C)c4[nH]c(=O)cc(C)c4c3)cc12`, the T/C under setting [5] is 96 % of control, the T/C under setting [6] is 101 % of control and the T/C under setting [7] was 103 % of control.

In the case of `CSc1cc(=O)n(C2OC(COC(C)=O)C(OC(C)=O)C2OC(C)=O)c(=O)[nH]1` (stereo not drawn), the T/C (dose: 100.0 mg/kg/injection, schedule: Q01DX005 (ip), vehicle: saline) is 95 % of control and the T/C (dose: 200.0 mg/kg/injection, schedule: Q01DX005 (ip), vehicle: saline) was 97 % of control.

Turning to `O=C(O)c1c(Cl)n(-c2ccccc2)c2ccccc12`, the T/C was 101 % of control (dose: 50.0 mg/kg/injection, schedule: Q04DX002 (ip), vehicle: Klucel (hydroxypropylcellulose) (HPC)); 104 % of control under setting [8]; 93 % of control under setting [9].

With `CC(C)[CH2][Sn](=[O])[CH2]C(C)C`, the T/C reads like this: (dose: 6.25 mg/kg/injection, schedule: Q04DX002 (ip), vehicle: saline with Tween-80) 108 % of control; (dose: 12.5 mg/kg/injection, schedule: Q04DX002 (ip), vehicle: saline with Tween-80) 96 % of control.

Turning to `O=C(Nc1ccc(Cl)cc1C(F)(F)F)OCCOc1ccc([N+](=O)[O-])cc1`, the T/C reads like this: under setting [10], 91 % of control; under setting [11], 94 % of control; (dose: 400.0 mg/kg/injection, schedule: Q01DX009 (ip), vehicle: saline with Tween-80) 95 % of control.

As for `CC(=O)OCN1C(=O)N(COC(C)=O)C(c2ccccc2)(c2ccccc2)C1=O`, the T/C runs as follows: under setting [10], 102 % of control; (dose: 100.0 mg/kg/injection, schedule: Q04DX002 (ip), vehicle: saline with Tween-80) 102 % of control; under setting [11], 87 % of control; (dose: 200.0 mg/kg/injection, schedule: Q04DX002 (ip), vehicle: saline with Tween-80) 102 % of control; (dose: 400.0 mg/kg/injection, schedule: Q04DX002 (ip), vehicle: saline with Tween-80) 106 % of control.

`O=C1NC(=O)C2(CCCc3ccc(N(CCCl)CCCl)cc32)N1` (stereo not drawn): the T/C reads like this: (dose: 30.0 mg/kg/injection, schedule: Q01DX015 (ip), vehicle: carboxymethylcellulose (CMC)) 102 % of control; (dose: 60.0 mg/kg/injection, schedule: Q01DX015 (ip), vehicle: carboxymethylcellulose (CMC)) 120 % of control; (dose: 120.0 mg/kg/injection, schedule: Q01DX015 (ip), vehicle: carboxymethylcellulose (CMC)) 123 % of control; (dose: 240.0 mg/kg/injection, schedule: Q01DX015 (ip), vehicle: carboxymethylcellulose (CMC)) 107 % of control.

With `CCCCCCCCCCCCCCCCOc1ccccc1/C=N/O`, the T/C was 94 % of control under setting [1], 95 % of control under setting [2] and 90 % of control under setting [3].

Regarding `COC(=O)c1cn[nH]c1/N=N/N(C)CCO`, the T/C under setting [12] is 113 % of control; the T/C under setting [13] was 119 % of control; the T/C under setting [14] is 117 % of control; the T/C under setting [15] is 163 % of control; the T/C under setting [16] is 119 % of control; the T/C under setting [17] was 107 % of control. For the same compound, under setting [18], the T/C was 119 % of control.

On to `c1ccc2nc(NN=C3CCCCC3)ccc2c1`, for which the T/C reads like this: (dose: 10.0 mg/kg/injection, schedule: Q01DX001 (ip), vehicle: saline) 107 % of control; (dose: 20.0 mg/kg/injection, schedule: Q01DX001 (ip), vehicle: saline) 97 % of control; (dose: 40.0 mg/kg/injection, schedule: Q01DX001 (ip), vehicle: saline) 95 % of control.

For `CCOC(=O)C[N+]1(C)CCC(O)CC1` (stereo not drawn), the T/C was 98 % of control under setting [13], 98 % of control under setting [16] and 101 % of control under setting [18].

`N#Cc1ccccc1CCl`: the T/C reads like this: under setting [4], 103 % of control; under setting [5], 97 % of control; under setting [6], 103 % of control; under setting [7], 107 % of control.

As for `CC(=O)c1c(C)cc(C(C)(C)C)cc1C`, the T/C by setting is: under setting [19], 97 % of control; under setting [13], 105 % of control; under setting [15], 100 % of control; under setting [16], 92 % of control; under setting [20], 108 % of control; under setting [18], 100 % of control.

Turning to `CCOC(=O)c1cnccc1C#N`, the T/C reads like this: under setting [8], 88 % of control; under setting [9], 100 % of control; (dose: 400.0 mg/kg/injection, schedule: Q04DX002 (ip), vehicle: Klucel (hydroxypropylcellulose) (HPC)) 100 % of control.

On to `Cc1cc(=O)oc2c1ccc1c(O)cccc12`, for which the T/C under setting [5] is 103 % of control, the T/C under setting [6] was 97 % of control and the T/C under setting [7] is 94 % of control.

In the case of `CC(=O)CC(=O)Nc1ccc(C)c(C)c1`, the T/C by setting is: under setting [19], 102 % of control; under setting [15], 102 % of control; under setting [20], 93 % of control.

On to `CCN(CC)c1ccccc1S(=O)(=O)O`, for which the T/C was 104 % of control under setting [12], 95 % of control under setting [14] and 98 % of control under setting [17].

These data come from PubChem BioAssay AID248 (DTP/NCI, 2004).
